Legend:
[1] = Stability of samples in incubators, determined by HPLC; format: physicochemical; details: 30 days
[2] = Solubility by HPLC (external standard method) compared with agomelatine of form II; format: physicochemical
Procedure: By means of an external standard method, the compounds of Examples 1 and 2 are tested by HPLC and compared with agomelatine of form II. The results are presented in Table 4 in the form of % increase in solubility relative to the solubility of agomelatine of form II: […]

| SMILES | Stability ([1]; 70° C., closed bottle) | Solubility (increase versus agomelatine form II) in 0.1N HCl [2] | Solubility (increase versus agomelatine form II) in a buffer pH 6.8 [2] | Solubility (increase versus agomelatine form II) in water [2] | Stability ([1]; 25° C., 60% RH, open bottle) | Stability ([1]; 40° C., 75% RH, open bottle) | Stability ([1]; 50° C., closed bottle) |
| --- | --- | --- | --- | --- | --- | --- | --- |
| COc1ccc2cccc(CCNC(C)=O)c2c1.Cc1ccc(S(=O)(=O)O)cc1 [Compound of Example 2, Agomelatine/p-Toluenesulphonic Acid (1/1) Co-Crystal] | Stable | +45% | +60% | +35% | – | – | – |
| COc1ccc2cccc(CCNC(C)=O)c2c1.Cc1ccc(S(=O)(=O)O)cc1.O [Compound of Example 1, Agomelatine/p-Toluenesulphonic Acid (1/1) Monohydrate Co-Crystal] | Stable | +50% | +49% | +41% | Stable | Stable | Stable |

Source: patent US9663451B2, “Forms of co-crystals of agomelatine and p toluenesulphonic acid, a process for their preparation and pharmaceutical compositions containing them” (LES LABORATOIRES SERVIER, priority 2013, dated 2017)
